The target in the assay is T1, wild-type human ALK (cytoplasmic domain, amino acids 1058-1620, N-terminal GST fusion) (Homo sapiens, UniProt Q9UM73).
T1 construct: The cytoplasmic domain (amino acids 1058-1620) of wild-type human ALK; GST (N); made in house; host or cells: SF9 insect cells
T1 sequence (Q9UM73 1058-1620): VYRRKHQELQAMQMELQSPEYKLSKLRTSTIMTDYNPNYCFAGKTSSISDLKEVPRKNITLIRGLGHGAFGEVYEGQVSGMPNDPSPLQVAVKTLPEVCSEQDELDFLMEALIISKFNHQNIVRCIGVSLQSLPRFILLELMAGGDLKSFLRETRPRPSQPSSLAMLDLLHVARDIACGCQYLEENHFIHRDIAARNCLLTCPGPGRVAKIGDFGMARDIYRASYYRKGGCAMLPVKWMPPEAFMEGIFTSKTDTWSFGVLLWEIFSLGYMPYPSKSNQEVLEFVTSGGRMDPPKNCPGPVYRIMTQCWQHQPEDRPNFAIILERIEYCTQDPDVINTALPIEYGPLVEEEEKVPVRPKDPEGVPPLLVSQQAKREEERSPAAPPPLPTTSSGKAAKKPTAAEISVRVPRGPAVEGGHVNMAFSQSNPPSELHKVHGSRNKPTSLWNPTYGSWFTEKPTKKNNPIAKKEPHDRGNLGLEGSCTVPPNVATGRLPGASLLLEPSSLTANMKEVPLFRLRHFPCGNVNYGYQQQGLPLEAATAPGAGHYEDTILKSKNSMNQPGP
In words: ALK Inhibition in Enzyme Assay (Lance TR-FRET kinase assay). Type of assay: biochemical. Put shortly: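 Purified enzyme phosphorylated a biotinylated peptide substrate for 90 minutes at room temperature. Reactions were stopped with 20 mM EDTA in 50 mM Tris (pH 7.5), 100 mM NaCl, 0.05% BSA, 0.1% Tween-20. Phosphopeptide was detected by TR-FRET with SA-APC and Eu-W1024 anti-phosphotyrosine antibody PT66, excitation 320 nm.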
A general note: Time-resolved FRET reads energy transfer from a long-lived donor to a nearby acceptor.
Regarding `CC(C)NC(=O)[C@H]1CC[C@@H](n2/c(=N/C(=O)c3ccc(F)cc3F)[nH]c3cnc(OCCN4CCCCC4)cc32)CC1` [Example 94, (E)-2,4-Difluoro-N-(1-(cis-4-(isopropylcarbamoyl)cyclohexyl)-6-(2-(piperidin-1-yl)ethoxy)-1H-imidazo[4,5-c]pyridin-2(3H)-ylidene)benzamide], the IC50 (commonly the point on the concentration scale where inhibition reaches its midpoint) lay in the range of 50 to 100 nM.

`CC(C)NC(=O)[C@H]1CC[C@@H](n2c(N)nc3ccc(CN4CCC(C(C)(C)O)CC4)cc32)CC1` [Example 136, cis-4-(2-Amino-6-((4-(2-hydroxypropan-2-yl)piperidin-1-yl)methyl)-1H-benzo[d]imidazol-1-yl)-N-isopropylcyclohexanecarboxamide] displayed an IC50 of 1000 to 5000 nM. As for `CC(C)(O)C1CCN(Cc2ccc3[nH]/c(=N\C(=O)c4cccc(F)c4)n([C@H]4CC[C@@H](C(N)=O)CC4)c3c2)CC1` [Example 231], the IC50 is below 50 nM.
